Where “and” joins values, the source holds several entries; their conditions need not be identical. Identical values can stand only once. Records with an inconclusive call do not appear.
System: BDF1 mice, colon carcinoma 38 sc, T/C %
Assay: NCI In Vivo Anticancer Drug Screen. Data for tumor model Colon Carcinoma 38 (subcutaneous) in B6D2F1 (BDF1) mice
Settings: endpoint: median tumor weight (est.), higher = larger tumour
Protocol: The antitumor activity of compounds was measured in mice bearing transplantable tumors. Survival or tumor size were measured and the results are expressed as the measurement made in the treated group (T) divided by the measurement made in the vehicle treated control group (C). The tumor model used in this assay is Colon Carcinoma 38 (subcutaneous) in B6D2F1 (BDF1) mice

[1] = dose: 6.25 mg/kg/injection, schedule: Q07DX002 (ip), vehicle: saline with Tween-80
[2] = dose: 12.5 mg/kg/injection, schedule: Q07DX002 (ip), vehicle: saline with Tween-80
[3] = dose: 50.0 mg/kg/injection, schedule: Q07DX002 (ip), vehicle: saline with Tween-80
[4] = dose: 100.0 mg/kg/injection, schedule: Q07DX002 (ip), vehicle: saline with Tween-80
[5] = dose: 200.0 mg/kg/injection, schedule: Q07DX002 (ip), vehicle: saline with Tween-80

Cc1cnc(/C=N\NC(N)=S)c2cccc(N)c12
T/C [1]: 110 % of control | T/C (dose: 6.25 mg/kg/injection, schedule: Q07DX003 (ip), vehicle: saline with Tween-80): 88 % of control | T/C [2]: 69 % of control | T/C (dose: 12.5 mg/kg/injection, schedule: Q07DX003 (ip), vehicle: saline with Tween-80): 111 % of control | T/C (dose: 25.0 mg/kg/injection, schedule: Q07DX003 (ip), vehicle: saline with Tween-80): 122 % of control | T/C [3]: 36 % of control and 57 % of control | T/C (dose: 50.0 mg/kg/injection, schedule: Q07DX003 (ip), vehicle: saline with Tween-80): 45 % of control

C1CC[N-]CC1.[Cl][Pt+2][Cl].[NH-]C1CC1
T/C (dose: 6.25 mg/kg/injection, schedule: Q07DX002 (ip), vehicle: water): 75 % of control | T/C (dose: 25.0 mg/kg/injection, schedule: Q07DX002 (ip), vehicle: water): 86 % of control | T/C (dose: 100.0 mg/kg/injection, schedule: Q07DX002 (ip), vehicle: water): 163 % of control

N#CCCSC(=S)C1CCCC1=N (stereo not given)
T/C (dose: 25.0 mg/kg/injection, schedule: Q07DX002 (ip), vehicle: saline with Tween-80): 107 % of control | T/C [3]: 95 % of control | T/C [4]: 90 % of control | T/C [5]: 99 % of control | T/C (dose: 400.0 mg/kg/injection, schedule: Q07DX002 (ip), vehicle: saline with Tween-80): 71 % of control | T/C (dose: 800.0 mg/kg/injection, schedule: Q07DX002 (ip), vehicle: saline with Tween-80): 86 % of control

COC(=O)C12OCC34C(CC5C(C)C6=CC(=O)OC6=CC5(C)C3C(O)C1O)OC(=O)C(OC(C)=O)C24 (stereo not given)
T/C (dose: 0.25 mg/kg/injection, schedule: Q07DX002 (ip), vehicle: saline + alcohol): 86 % of control | T/C (dose: 0.5 mg/kg/injection, schedule: Q07DX002 (ip), vehicle: saline + alcohol): 65 % of control | T/C (dose: 1.0 mg/kg/injection, schedule: Q07DX002 (ip), vehicle: saline + alcohol): 96 % of control | T/C (dose: 2.0 mg/kg/injection, schedule: Q07DX002 (ip), vehicle: saline + alcohol): 105 % of control | T/C (dose: 4.0 mg/kg/injection, schedule: Q07DX002 (ip), vehicle: saline + alcohol): 114 % of control

COC1=C(OC)C(=O)C(Sc2ccc3ccccc3c2)=CC1=O
T/C [1]: 86 % of control | T/C [2]: 63 % of control | T/C [3]: 90 % of control and 98 % of control | T/C [4]: 87 % of control and 88 % of control | T/C [5]: 74 % of control

C=C(C)[C@H]1CN[C@H](C(=O)O)[C@H]1CC(=O)O
T/C (dose: 0.62 mg/kg/injection, schedule: Q07DX002 (ip), vehicle: saline): 58 % of control | T/C (dose: 1.25 mg/kg/injection, schedule: Q07DX002 (ip), vehicle: saline): 80 % of control | T/C (dose: 2.5 mg/kg/injection, schedule: Q07DX002 (ip), vehicle: saline): 92 % of control | T/C (dose: 5.0 mg/kg/injection, schedule: Q07DX002 (ip), vehicle: saline): 95 % of control | T/C (dose: 6.25 mg/kg/injection, schedule: Q07DX002 (ip), vehicle: saline): 90 % of control | T/C (dose: 10.0 mg/kg/injection, schedule: Q07DX002 (ip), vehicle: saline): 79 % of control | T/C (dose: 12.5 mg/kg/injection, schedule: Q07DX002 (ip), vehicle: saline): 73 % of control | T/C (dose: 20.0 mg/kg/injection, schedule: Q07DX002 (ip), vehicle: saline): 90 % of control | T/C (dose: 25.0 mg/kg/injection, schedule: Q07DX002 (ip), vehicle: saline): 90 % of control

CNC(=O)OCc1c(COC(=O)NC)c(C)n(-c2ccc(OC)cc2)c1C
T/C (dose: 6.25 mg/kg/injection, schedule: Q07DX002 (ip), vehicle: Klucel (hydroxypropylcellulose) (HPC)): 82 % of control | T/C (dose: 12.5 mg/kg/injection, schedule: Q07DX002 (ip), vehicle: Klucel (hydroxypropylcellulose) (HPC)): 69 % of control | T/C (dose: 50.0 mg/kg/injection, schedule: Q07DX002 (ip), vehicle: Klucel (hydroxypropylcellulose) (HPC)): 111 % of control | T/C (dose: 100.0 mg/kg/injection, schedule: Q07DX002 (ip), vehicle: Klucel (hydroxypropylcellulose) (HPC)): 68 % of control and 93 % of control | T/C (dose: 200.0 mg/kg/injection, schedule: Q07DX002 (ip), vehicle: Klucel (hydroxypropylcellulose) (HPC)): 49 % of control
